According to patent publication US6403805B1 (Janssen Pharmaceutica N.V., priority 1995, dated 2002):
Where a name gives a salt, the structure may show the parent alone.

Columns and labels:
[1] = system: dextran-induced oedema formation in mouse ear; assay: Dextran-induced oedema formation in mouse ear; assay type: in vivo, Male Swiss mice; details: Mus musculus, 1 h; oral dose of 5 mg/kg in PEG-200, one hour before i.v. dextran T500/pontamine sky-blue; vs background blueing value; read-out: % inhibition of the extravasation of the dye
Method: Dextran-induced oedema formation in mouse ear Systemic injection of dextran T500 in normal, non-sensitized mice elicits increased vascular permeability, leading to extravasation and oedema of the extremities. When dextran is injected together with a blue dye, blueing of the ears is the most prominent feature of oedematous response. Male Swiss mice weighting 24-26 g were orally pretreated with the test compound dissolved in PEG-200 at different concentrations or solvent. One hour later, the mice were given an intravenous injection with an isotonic saline solution containing 12 mg/ml dextran T500 and 2.6 mg/ml pontamine sky-blue dye, in a volume of 0.1 ml per 10 g body weight. One hour and forty-five minutes later, the animals are sacrificed by ether and their ears removed. Extraction and quantification of the extravasated dye is done as described by Van Wauwe and Goossens (Drug Dev. Res. 1986, 8, 213-218). The extravasation of the dye is characterized by the blueing value which is defined as the concentration of the extracted dye in both ears. The background blueing value was determined once as the mean blueing value obtained by injecting a group of mice with a saline solution containing only dextran T500 and the blue dye. Table 6 lists the percentage inhibition of the extravasation of the dye when compared with the background extravasation of the dye when the test compound was administered at a dose of 5 mg/kg. The test compounds indicated by an asterisk (*) were tested at a dose of 2.5 mg/kg

[2] = biological target: T1, recombinant human MNL phosphodiesterase type IV B (Homo sapiens, UniProt Q07343); assay: Inhibition of recombinant human mononuclear lymphocyte (MNL) phosphodiesterase type IV B produced in insect cells with a baculovirus vector; assay type: biochemical; details: recombinant human MNL PDE IV B; 0.8 μM 3H-cAMP, pH 8, 37° C.; calculated graphically
T1 construct: made in house; host or cells: insect cells infected with recombinant baculovirus
Method: Inhibition of recombinant human mononuclear lymphoctye (MNL) phosphodiesterase type IV B produced in insect cells with a baculovirus vector
The alleviating and/or curing effect of the instant compounds on allergic and atopic diseases was assessed by an in vitro assay system to detect an inhibiting effect on the recombinant human MNL phosphodiesterase type IV B.
Seventy-two hours after infection with recombinant baculovirus, the insect cells were harvested and pelleted at 500 g for 5 minutes. The cells were lysed in 10 ml lysis-buffer consisting of 20 mM Tris, 10 mM EGTA, 2 mM Na2EDTA, 1% Triton-X-100, 1 mM Na3VO4, 10 mM NaF, 2 μg/ml of leupeptine, pepstatine and aprotinine, 0.3 μg/ml benzamidine and 100 μg/ml TPCK pH 7.5. After 5 minutes on ice, solubilized cells were centrifuged at 4000 rpm for 15 minutes at 4° C. The resulting supernatant was filtered through a 0.45 μm filter (Millipore) and brought to TBS buffer (50 mM Tris, 150 mM NaCl pH 7.4).
After washing the column with equilibration buffer, PDE IV was eluted in 1.5 ml fractions containing 37.5 μl 1M Tris pH 8. The fractions were dialyzed overnight against 20 mM Tris, 2 mM Na2EDTA and 400 mM NaCl pH 7.5 and tested for PDE IV activity. Identification was done on SDS PAGE and Western Blot (anti-FLAG-M2). Active fractions were pooled, brought to 10% glycerol and stored at −70° C.
The incubation mixture (pH 8) (200 μl) contained 20 mM Tris, 10 mM magnesium sulphate, 0.8 μM ^3H-cAMP (310 mCi/mmole) and the phosphodiesterase type IV, the amount depending on the enzymatic activity.
When the effect of different compounds on phosphodiesterase activity was tested, the medium without cAMP was incubated with the compound(s) or its carrier (DMSO-1% final concentration) for 5 min. The enzymatic reaction was started by addition of ^3H-cAMP and stopped 10 min later after transferring the microtiter-plate in a waterbath at 100° C. for 5 min. After cooling to room temperature, alkaline phosphatase (0.25 μg/ml) was added and the mixture was incubated at 37° C. for 20 min. 100 μl of the mixture was subsequently applied to a GF-B filter-microtiter-plate (Millipore) filled with 300 μl DEAE-Sephadex-A25 suspension. The plate was washed 3 times with 75 μl 20 mM Tris pH 7.5 and the filtrates were collected for counting in the Packard Top Count scintillation counter.
The inhibiting effect of the present compounds on recombinant human MNL phosphodiesterase PDE IV B was measured at different concentrations of the instant compounds. The IC50 values (expressed in M) were calculated graphically from the thus obtained inhibition values.

T1 sequence (Q07343 whole entry): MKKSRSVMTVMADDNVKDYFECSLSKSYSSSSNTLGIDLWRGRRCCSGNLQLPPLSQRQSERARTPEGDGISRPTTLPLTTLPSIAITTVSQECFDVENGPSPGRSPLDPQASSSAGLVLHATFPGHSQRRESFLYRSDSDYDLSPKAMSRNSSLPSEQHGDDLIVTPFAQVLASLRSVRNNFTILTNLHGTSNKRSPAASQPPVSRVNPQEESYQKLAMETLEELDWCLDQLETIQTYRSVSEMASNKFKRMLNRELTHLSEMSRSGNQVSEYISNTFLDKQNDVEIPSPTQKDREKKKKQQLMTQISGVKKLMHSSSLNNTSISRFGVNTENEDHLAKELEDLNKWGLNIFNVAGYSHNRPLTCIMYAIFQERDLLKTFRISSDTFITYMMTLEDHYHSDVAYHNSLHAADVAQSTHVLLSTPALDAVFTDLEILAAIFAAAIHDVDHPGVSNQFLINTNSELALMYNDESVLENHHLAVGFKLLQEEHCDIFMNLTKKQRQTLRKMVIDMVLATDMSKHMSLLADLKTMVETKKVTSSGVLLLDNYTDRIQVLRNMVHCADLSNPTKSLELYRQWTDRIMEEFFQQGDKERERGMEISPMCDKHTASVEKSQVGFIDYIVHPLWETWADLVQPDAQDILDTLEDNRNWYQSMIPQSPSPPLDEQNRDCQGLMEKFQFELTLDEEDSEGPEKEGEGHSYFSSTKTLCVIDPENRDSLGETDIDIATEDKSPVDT

With `COc1ccc(C(N)CN2CCN(Cc3ccccc3)C2=O)cc1OC` (racemic) (as salt: hydrochloric acid salt) [Compound 11, (±)-1-[2-amino-2-(3,4-dimethoxyphenyl)ethyl]-3-(phenylmethyl)-2-imidazolidinone] the melting point was 221.7 °C.
Compound `COc1ccc(C(C)(O)Cn2cc[nH]c2=O)cc1OC1CCCC1` (racemic) [Compound 12, (±)-1-[2-[3-(cyclopentyloxy)-4-methoxyphenyl]-2-hydroxypropyl]-1,3-dihydro-2H-imidazol-2-one] has an inhibition in vivo at 5 mg/kg [1] of 87.5%, a melting point of 136.2 °C and an IC50 [2] of 290 nM.
With `COc1ccc(C(CN2CCN(Cc3ccccc3)C2=O)NC(C)=O)cc1OC` (racemic) [Compound 14, (±)-N-[1-(3,4-dimethoxyphenyl)-2-[2-oxo-3-(phenylmethyl)-1-imidazolidinyl]ethyl]acetamide] the inhibition in vivo at 5 mg/kg [1] was 32.3% and the melting point was 156.4 °C.
Compound `CCOC(Cn1cc[nH]c1=O)c1ccc(OC)c(OC)c1` (racemic) [Compound 15, (±)-1-[2-(3,4-dimethoxyphenyl)-2-ethoxyethyl]-1,3-dihydro-2H-imidazol-2-one] has a melting point of 133.6 °C.
`COc1ccc(C2(Cn3ccn(Cc4ccccc4)c3=O)CC2)cc1OC` [Compound 21, 1-[[1-(3,4-dimethoxyphenyl)cyclopropyl]methyl]-1,3-dihydro-3-(phenylmethyl)-2H-imidazol-2-one] gave a melting point of 110.5 °C.
